# Source: patent US12378224B2 (Dong-A Socio Holdings Co., Ltd., priority 2016, dated 2025)
# Molecular target: human MER (528-end) (Homo sapiens (Human), UniProt Q12866)
# Test: HTRF Kinase Activity Biochemical Assay (KinEASE-TK)
# Conditions: 10 uM ATP
# Description: For the SAR (structure-activity relationship) and compound screening, HTRF (Homogeneous Time Resolved Fluorescence) kinase activity assay was employed for all MER, AXL and TYRO3 kinases using Cisbio HTRF® KinEASE™-TK kit (Cisbio, USA). The kit includes biotin-labeled TK substrate, streptavidin-XL665, Eu3+-cryptate-labeled TK antibody and HTRF® Detection buffer. There are two main steps in the kinase assay: kinase reaction and detection of phosphorylated substrate. The reaction was carried out in white low volume 384-well plate (Corning, USA) with 25 nL compound in dimethyl sulfoxide in each well. […] Then the reaction was stopped after 1 hour incubation at room temperature by adding 5 uL of HTRF® Detection buffer which also contains 0.375 nM Eu3+-cryptate-labeled TK antibody and 0.062 uM streptavidin-XL665(SA-XL665) to allow for detection of the phosphorylated peptide product. After 1 h incubation at room temperature, the fluorescence intensity was measured with Envision™ plate reader (PerkinElmer, USA). Upon excitation at 340 nm by UV, the energy from Eu3+ donor of the antibody is transferred to the FRET acceptor XL665, and […] emits light at 665 nm. The level of kinase activity was quantified by the HTRF ratio that calculated from the intensity of emission at 665 nm and emission at 620 nm (fluorescence intensity @ 665 nm/fluorescence intensity @ 620 nm×10,000). The recombinant protein of human MER (528-end) was purchased from Carnabio, Japan. The recombinant human AXL (473-end) and TYRO3 (455-end) were purchased from SignalChem, Canada.
# Chain of human MER (528-end) (Q12866 528-999 limits assumed): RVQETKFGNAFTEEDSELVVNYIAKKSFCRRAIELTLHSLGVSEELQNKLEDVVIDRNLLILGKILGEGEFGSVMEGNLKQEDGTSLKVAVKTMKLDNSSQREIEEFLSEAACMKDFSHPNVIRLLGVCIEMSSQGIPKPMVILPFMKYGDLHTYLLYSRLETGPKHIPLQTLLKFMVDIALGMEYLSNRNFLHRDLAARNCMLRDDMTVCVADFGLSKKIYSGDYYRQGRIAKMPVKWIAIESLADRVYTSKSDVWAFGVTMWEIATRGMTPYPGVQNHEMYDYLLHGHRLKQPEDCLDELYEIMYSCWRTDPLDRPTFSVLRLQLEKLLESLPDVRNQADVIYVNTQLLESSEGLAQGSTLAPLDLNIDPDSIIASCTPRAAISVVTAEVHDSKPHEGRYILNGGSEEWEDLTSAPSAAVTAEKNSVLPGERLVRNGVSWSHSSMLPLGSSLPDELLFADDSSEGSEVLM
row,SMILES,IC50
1,"COC(=O)c1cccc(OC(=O)N2CC[C@@H](NC(=O)c3cc(-c4cnn(C)c4)cnc3N)C2)c1 [Example 64, 3-(methoxycarbonyl)phenyl (R)-3-(2-amino-5-(1-methyl-1H-pyrazol-4-yl)nicotinamido)pyrrolidine-1-carboxylate]",> 1000 nM
2,"COC(=O)c1ccc(OC)cc1OC(=O)N1CC[C@@H](NC(=O)c2cc(-c3cnn(C)c3)cnc2N)C1 [Example 65, 5-methoxy-2-(methoxycarbonyl)phenyl (R)-3-(2-amino-5-(1-methyl-1H-pyrazol-4-yl)nicotinamido)pyrrolidine-1-carboxylate]",> 1000 nM
3,"Cn1cc(-c2cnc(N)c(C(=O)N[C@@H]3CCN(C(=O)OC4CCCCC4)C3)c2)cn1 [Example 66, cyclohexyl (R)-3-(2-amino-5-(1-methyl-1H-pyrazol-4-yl)nicotinamido)pyrrolidine-1-carboxylate]",> 1000 nM
4,"Cn1cc(-c2cnc(N)c(C(=O)N[C@@H]3CCN(C(=O)Oc4ccc5cc(Br)ccc5c4)C3)c2)cn1 [Example 67, 6-bromonaphthalen-2-yl (R)-3-(2-amino-5-(1-methyl-1H-pyrazol-4-yl)nicotinamido)pyrrolidine-1-carboxylate]",100 to 1000 nM
5,"Cn1cc(-c2cnc(N)c(C(=O)N[C@@H]3CCN(C(=O)Oc4cccc5ccccc45)C3)c2)cn1 [Example 68, naphthalen-1-yl (R)-3-(2-amino-5-(1-methyl-1H-pyrazol-4-yl)nicotinamido)pyrrolidine-1-carboxylate]",> 1000 nM
6,"Cn1cc(-c2cnc(N)c(C(=O)N[C@@H]3CCN(C(=O)Oc4ccc5ccccc5c4N)C3)c2)cn1 [Example 69, 1-aminonaphthalen-2-yl (R)-3-(2-amino-5-(1-methyl-1H-pyrazol-4-yl)nicotinamido)pyrrolidine-1-carboxylate]",100 to 1000 nM
7,"Cn1cc(-c2cnc(N)c(C(=O)N[C@@H]3CCN(C(=O)Oc4ccccc4CO)C3)c2)cn1 [Example 71, 2-(hydroxymethyl)phenyl (R)-3-(2-amino-5-(1-methyl-1H-pyrazol-4-yl)nicotinamido)pyrrolidine-1-carboxylate]",> 1000 nM
8,"Cn1cc(-c2cnc(N)c(C(=O)N[C@@H]3CCN(C(=O)Oc4ccc5ncccc5c4)C3)c2)cn1 [Example 72, quinolin-6-yl (R)-3-(2-amino-5-(1-methyl-1H-pyrazol-4-yl)nicotinamido)pyrrolidine-1-carboxylate]",> 1000 nM
9,"Cn1cc(-c2cnc(N)c(C(=O)N[C@@H]3CCN(C(=O)Oc4cccc5cccnc45)C3)c2)cn1 [Example 73, quinolin-8-yl (R)-3-(2-amino-5-(1-methyl-1H-pyrazol-4-yl)nicotinamido)pyrrolidine-1-carboxylate]",> 1000 nM
10,"CCNc1cc(OC(=O)N2CC[C@@H](NC(=O)c3cc(-c4cnn(C)c4)cnc3N)C2)ccc1C [Example 74, 3-(ethylamino)-4-methylphenyl (R)-3-(2-amino-5-(1-methyl-1H-pyrazol-4-yl)nicotinamido)pyrrolidine-1-carboxylate]",> 1000 nM
11,"Cn1cc(-c2cnc(N)c(C(=O)N[C@@H]3CCN(C(=O)Oc4ccc(Cl)cc4C4CCCCC4)C3)c2)cn1 [Example 75, 4-chloro-2-cyclohexylphenyl (R)-3-(2-amino-5-(1-methyl-1H-pyrazol-4-yl)nicotinamido)pyrrolidine-1-carboxylate]",> 1000 nM
12,"CC(=O)Nc1cccc(OC(=O)N2CC[C@@H](NC(=O)c3cc(-c4cnn(C)c4)cnc3N)C2)c1 [Example 76, 3-acetamidophenyl (R)-3-(2-amino-5-(1-methyl-1H-pyrazol-4-yl)nicotinamido)pyrrolidine-1-carboxylate]",> 1000 nM
13,"Cn1cc(-c2cnc(N)c(C(=O)N[C@@H]3CCN(C(=O)Oc4ccc(S(C)(=O)=O)cc4)C3)c2)cn1 [Example 77, 4-(methylsulfonyl)phenyl (R)-3-(2-amino-5-(1-methyl-1H-pyrazol-4-yl)nicotinamido)pyrrolidine-1-carboxylate]",> 1000 nM
14,"CN(C)Cc1ccccc1OC(=O)N1CC[C@@H](NC(=O)c2cc(-c3cnn(C)c3)cnc2N)C1 [Example 78, 2-((dimethylamino)methyl)phenyl (R)-3-(2-amino-5-(1-methyl-1H-pyrazol-4-yl)nicotinamido)pyrrolidine-1-carboxylate]",> 1000 nM
15,"Cn1cc(-c2cnc(N)c(C(=O)N[C@@H]3CCN(C(=O)OCc4ccccc4)C3)c2)cn1 [Example 80, benzyl (R)-3-(2-amino-5-(1-methyl-1H-pyrazol-4-yl)nicotinamido)pyrrolidine-1-carboxylate]",> 1000 nM
16,"Nc1ncc(-c2ccc(CO)cc2)cc1C(=O)N[C@@H]1CCN(C(=O)Oc2cccc(-c3ccccc3)c2)C1 [Example 81, [1,1′-biphenyl]-3-yl (R)-3-(2-amino-5-(4-(hydroxymethyl)phenyl)nicotinamido)pyrrolidine-1-carboxylate]",100 to 1000 nM

row,SMILES,IC50
1,"Nc1ncc(-c2ccc(C(=O)N3CCOCC3)cc2)cc1C(=O)N[C@@H]1CCN(C(=O)Oc2cccc(-c3ccccc3)c2)C1 [Example 83, [1,1′-biphenyl]-3-yl (R)-3-(2-amino-5-(4-(morpholine-4-carbonyl)phenyl)nicotinamido)pyrrolidine-1-carboxylate]",100 to 1000 nM
2,"Nc1ncc(-c2ccc(F)c(F)c2)cc1C(=O)N[C@@H]1CCN(C(=O)Oc2cccc(-c3ccccc3)c2)C1 [Example 84, [1,1′-biphenyl]-3-yl (R)-3-(2-amino-5-(3,4-difluorophenyl)nicotinamido)pyrrolidine-1-carboxylate]",> 1000 nM
3,"Nc1ncc(Br)cc1C(=O)N[C@@H]1CCN(C(=O)Oc2cccc(-c3ccccc3)c2)C1 [Example 85, [1,1′-biphenyl]-3-yl (R)-3-(2-amino-5-bromonicotinamido)pyrrolidine-1-carboxylate]",> 1000 nM
4,"Cc1cc(OC(=O)N2CC[C@@H](NC(=O)c3cc(-c4cnn(C)c4)cnc3N)C2)ccc1Cl [Example 86, 4-chloro-3-methylphenyl (R)-3-(2-amino-5-(1-methyl-1H-pyrazol-4-yl)nicotinamido)pyrrolidine-1-carboxylate]",> 1000 nM
5,"Cn1cc(-c2cnc(N)c(C(=O)N[C@@H]3CCN(C(=O)Oc4cccc(C#N)c4)C3)c2)cn1 [Example 87, 3-cyanophenyl (R)-3-(2-amino-5-(1-methyl-1H-pyrazol-4-yl)nicotinamido)pyrrolidine-1-carboxylate]",> 1000 nM
6,"Cn1cc(-c2cnc(N)c(C(=O)N[C@@H]3CCN(C(=O)Oc4ccc(Cl)c(Cl)c4)C3)c2)cn1 [Example 88, 3,4-dichlorophenyl (R)-3-(2-amino-5-(1-methyl-1H-pyrazol-4-yl)nicotinamido)pyrrolidine-1-carboxylate]",> 1000 nM
7,"Cn1cc(-c2cnc(N)c(C(=O)N[C@@H]3CCN(C(=O)Oc4ccc(N)c(Cl)c4)C3)c2)cn1 [Example 89, 4-amino-3-chlorophenyl (R)-3-(2-amino-5-(1-methyl-1H-pyrazol-4-yl)nicotinamido)pyrrolidine-1-carboxylate]",> 1000 nM
8,"Cn1cc(-c2cnc(N)c(C(=O)N[C@@H]3CCN(C(=O)Oc4cc(F)cc(F)c4)C3)c2)cn1 [Example 90, 3,5-difluorophenyl (R)-3-(2-amino-5-(1-methyl-1H-pyrazol-4-yl)nicotinamido)pyrrolidine-1-carboxylate]",> 1000 nM
9,"Cc1cc(C)cc(OC(=O)N2CC[C@@H](NC(=O)c3cc(-c4cnn(C)c4)cnc3N)C2)c1 [Example 91, 3,5-dimethylphenyl (R)-3-(2-amino-5-(1-methyl-1H-pyrazol-4-yl)nicotinamido)pyrrolidine-1-carboxylate]",> 1000 nM
10,"COC(=O)c1ccccc1OC(=O)N1CC[C@@H](NC(=O)c2cc(-c3cnn(C)c3)cnc2N)C1 [Example 92, 2-(methoxycarbonyl)phenyl (R)-3-(2-amino-5-(1-methyl-1H-pyrazol-4-yl)nicotinamido)pyrrolidine-1-carboxylate]",> 1000 nM
11,"CCc1ccc(OC(=O)N2CC[C@@H](NC(=O)c3cc(-c4cnn(C)c4)cnc3N)C2)cc1 [Example 93, 4-ethylphenyl (R)-3-(2-amino-5-(1-methyl-1H-pyrazol-4-yl)nicotinamido)pyrrolidine-1-carboxylate]",100 to 1000 nM
12,"Cc1ccc(OC(=O)N2CC[C@@H](NC(=O)c3cc(-c4cnn(C)c4)cnc3N)C2)cc1C [Example 94, 3,4-dimethylphenyl (R)-3-(2-amino-5-(1-methyl-1H-pyrazol-4-yl)nicotinamido)pyrrolidine-1-carboxylate]",> 1000 nM
13,"CN1CCC(n2cc(-c3cnc(N)c(C(=O)N[C@@H]4CCN(C(=O)Oc5cccc(-c6ccccc6)c5)C4)c3)cn2)CC1 [Example 96, [1,1′-biphenyl]-3-yl (R)-3-(2-amino-5-(1-(1-methylpiperidin-4-yl)-1H-pyrazol-4-yl)nicotinamido)pyrrolidine-1-carboxylate]",100 to 1000 nM
14,"Cn1cc(-c2cnc(N)c(C(=O)N[C@@H]3CCN(C(=O)Oc4cc5ccccc5cc4O)C3)c2)cn1 [Example 97, 3-hydroxynaphthalen-2-yl (R)-3-(2-amino-5-(1-methyl-1H-pyrazol-4-yl)nicotinamido)pyrrolidine-1-carboxylate]",> 1000 nM
15,"Cn1cc(-c2cnc(N)c(C(=O)N[C@@H]3CCN(C(=O)Oc4ccccc4O)C3)c2)cn1 [Example 98, 2-hydroxyphenyl (R)-3-(2-amino-5-(1-methyl-1H-pyrazol-4-yl)nicotinamido)pyrrolidine-1-carboxylate]",> 1000 nM
